Measurements reported in PMC11643077, “Synthesis of 1,2,4-Oxadiazin-5(6H)-One Derivatives and Their Biological Investigation as Monoamine Oxidase Inhibitors” (Molecules, 2024).

Target: T1, MAO-B (Homo sapiens, UniProt P27338)
T1 construct: purchased Merck
T1 sequence (P27338 1-520): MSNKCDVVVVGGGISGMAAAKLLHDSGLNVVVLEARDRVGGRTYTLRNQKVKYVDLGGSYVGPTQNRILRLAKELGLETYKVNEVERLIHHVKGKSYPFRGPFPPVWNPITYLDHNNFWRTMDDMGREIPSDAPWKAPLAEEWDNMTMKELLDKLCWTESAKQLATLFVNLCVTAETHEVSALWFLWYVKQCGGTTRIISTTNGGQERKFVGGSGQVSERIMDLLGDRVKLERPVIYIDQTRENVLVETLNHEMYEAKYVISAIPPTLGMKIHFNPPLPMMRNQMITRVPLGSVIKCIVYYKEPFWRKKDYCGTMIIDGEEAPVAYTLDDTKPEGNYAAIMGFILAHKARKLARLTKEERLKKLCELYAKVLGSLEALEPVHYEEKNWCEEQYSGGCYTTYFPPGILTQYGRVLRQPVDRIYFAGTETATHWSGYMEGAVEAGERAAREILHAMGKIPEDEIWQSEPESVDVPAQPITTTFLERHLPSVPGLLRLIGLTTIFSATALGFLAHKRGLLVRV
Test: MAO-B inhibition, recombinant human enzyme, kynuramine substrate, fluorometric end-point
Type: biochemical
Conditions: mean ± SD of triplicate, racemic mixtures, NI = no inhibition at 100 µM
Experimental: (§1) The in vitro inhibition studies were carried out according to the published procedure, and the inhibition potencies were expressed as the IC50 values (Figure 2). […] A variety of C3 substituents were explored in this study, which included the phenyl, benzyl and 5-methylthiophen-2-yl moieties, while different substituents on the phenyl (e.g., CH3, OCH3, Cl, Br, F, CF3, OCF3, NO2, PhO) were considered.
(§2) The inhibition potencies of the 1,2,4-oxadiazin-5(6H)-one derivatives were determined using commercially available recombinant human MAO-A and MAO-B (Merck) according to the published procedure. Stock solutions of all compounds were prepared in DMSO and added to the enzyme reactions to yield a final concentration of 4% DMSO. […] Kynuramine was used as enzyme substrate for both MAO isoforms and was oxidized to ultimately form 4-hydroxyquinoline, which is a fluorescent metabolite. The concentrations of 4-hydroxyquinoline in the reactions were measured at end-point by fluorescence spectrometry (λex = 310 nm; λem = 400 nm). Using this approach, the rates of kynuramine oxidation by MAO were measured in the presence of different concentrations of the test inhibitors (0.003–100 µM) as well as in the absence of inhibitor. […] IC50 values were estimated from these plots and were reported as the mean ± SD of triplicate determinations.

| SMILES | IC50 [µM] |
| --- | --- |
| CCC1ON=C(Cc2ccccc2)NC1=O (centres unmarked) [Compound 5i, 3-Benzyl-6-ethyl-4H-1,2,4-oxadiazin-5(6H)-one] | > 100 |
| COC(=O)CC1ON=C(c2ccccc2)NC1=O (centres unmarked) [Compound 6a] | > 100 |
| COC(=O)CC1ON=C(c2ccccn2)NC1=O (centres unmarked) [Compound 6b] | 23.6 ± 1.11 |
| COC(=O)CC1ON=C(c2ccc([N+](=O)[O-])cc2)NC1=O (centres unmarked) [Compound 6c] | 52.3 ± 12.7 |
| COC(=O)CC1ON=C(c2ccc(C)s2)NC1=O (centres unmarked) [Compound 6d] | 33.9 ± 1.44 |
| COC(=O)CC1ON=C(c2ccncc2)NC1=O (centres unmarked) [Compound 6e] | > 100 |
| COC(=O)CC1ON=C(c2ccc(C(F)(F)F)cc2)NC1=O (centres unmarked) [Compound 6f] | 22.9 ± 5.27 |
| O=C1NC(c2ccc(F)cc2)=NOC1Cc1nc(-c2ccc(F)cc2)no1 (centres unmarked) [Compound 7b] | 14.3 ± 3.27 |
| O=C1NC(c2ccc([N+](=O)[O-])cc2)=NOC1Cc1nc(-c2ccc([N+](=O)[O-])cc2)no1 (centres unmarked) [Compound 7c] | 0.371 ± 0.037 |
| O=C1NC(c2ccc(C(F)(F)F)cc2)=NOC1Cc1nc(-c2ccc(C(F)(F)F)cc2)no1 (centres unmarked) [Compound 7d] | 46.3 ± 17.8 |
| O=C(O)CC1ON=C(c2ccc(Oc3ccccc3)cc2)NC1=O (centres unmarked) [Compound 8b] | > 100 |
| COc1ccc(C2=NOC(CC(=O)O)C(=O)N2)cc1 (centres unmarked) [Compound 8c] | > 100 |
| O=C(O)CC1ON=C(c2ccc(C(F)(F)F)cc2)NC1=O (centres unmarked) [Compound 8d] | > 100 |
| O=C(O)CC1ON=C(c2cc(Cl)cc(Cl)c2)NC1=O (centres unmarked) [Compound 8e] | 62.2 ± 15.7 |
| O=C(O)CC1ON=C(c2cccc(Cl)c2)NC1=O (centres unmarked) [Compound 8f, 2-(3-(3-Chlorophenyl)-5-oxo-5,6-dihydro-4H-1,2,4-oxadiazin-6-yl)acetic acid] | > 100 |
| O=C(O)CC1ON=C(c2ccc(OC(F)(F)F)cc2)NC1=O (centres unmarked) [Compound 8g, 2-(5-Oxo-3-(4-(trifluoromethoxy)phenyl)-5,6-dihydro-4H-1,2,4-oxadiazin-6-yl)acetic acid] | > 100 |
| COc1ccc2c(c1)[nH]c1c(C)nccc12 [Harmine, reference compound] | > 100 |

System: not given
Test: not given
Conditions: not given

| SMILES | melting point [°C] |
| --- | --- |
| CCC1ON=C(Cc2ccccc2)NC1=O (centres unmarked) [Compound 5i, 3-Benzyl-6-ethyl-4H-1,2,4-oxadiazin-5(6H)-one] | 97 to 99 |
| O=C(O)CC1ON=C(c2cccc(Cl)c2)NC1=O (centres unmarked) [Compound 8f, 2-(3-(3-Chlorophenyl)-5-oxo-5,6-dihydro-4H-1,2,4-oxadiazin-6-yl)acetic acid] | 211 to 212 |
| O=C(O)CC1ON=C(c2ccc(OC(F)(F)F)cc2)NC1=O (centres unmarked) [Compound 8g, 2-(5-Oxo-3-(4-(trifluoromethoxy)phenyl)-5,6-dihydro-4H-1,2,4-oxadiazin-6-yl)acetic acid] | 208 to 211 |

Target: T2, MAO-A (Homo sapiens, UniProt P21397)
T2 construct: purchased Merck
T2 sequence (P21397 1-527): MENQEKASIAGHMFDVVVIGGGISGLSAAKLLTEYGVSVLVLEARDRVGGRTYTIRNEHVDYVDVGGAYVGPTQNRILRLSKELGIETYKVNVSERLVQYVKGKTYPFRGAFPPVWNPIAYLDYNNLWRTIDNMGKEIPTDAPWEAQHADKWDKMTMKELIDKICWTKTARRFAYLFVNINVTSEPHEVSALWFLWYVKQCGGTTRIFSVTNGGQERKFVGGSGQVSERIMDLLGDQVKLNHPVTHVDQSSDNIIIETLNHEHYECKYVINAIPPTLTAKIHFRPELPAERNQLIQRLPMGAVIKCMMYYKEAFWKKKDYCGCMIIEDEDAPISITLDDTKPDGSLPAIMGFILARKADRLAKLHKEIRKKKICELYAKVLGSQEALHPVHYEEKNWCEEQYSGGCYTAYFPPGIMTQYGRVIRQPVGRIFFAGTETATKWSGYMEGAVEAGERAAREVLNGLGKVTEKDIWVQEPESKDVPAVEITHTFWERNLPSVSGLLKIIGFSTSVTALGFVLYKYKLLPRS
Test: MAO-A inhibition, recombinant human enzyme, kynuramine substrate, fluorometric end-point
Type: biochemical
Conditions: mean ± SD of triplicate, racemic mixtures, NI = no inhibition at 100 µM
Experimental: as §1, §2

| SMILES | IC50 [µM] |
| --- | --- |
| CCC1ON=C(Cc2ccccc2)NC1=O (centres unmarked) [Compound 5i, 3-Benzyl-6-ethyl-4H-1,2,4-oxadiazin-5(6H)-one] | > 100 |
| COC(=O)CC1ON=C(c2ccccc2)NC1=O (centres unmarked) [Compound 6a] | > 100 |
| COC(=O)CC1ON=C(c2ccccn2)NC1=O (centres unmarked) [Compound 6b] | 34.2 ± 6.15 |
| COC(=O)CC1ON=C(c2ccc([N+](=O)[O-])cc2)NC1=O (centres unmarked) [Compound 6c] | > 100 |
| COC(=O)CC1ON=C(c2ccc(C)s2)NC1=O (centres unmarked) [Compound 6d] | 40.7 ± 8.83 |
| COC(=O)CC1ON=C(c2ccncc2)NC1=O (centres unmarked) [Compound 6e] | > 100 |
| COC(=O)CC1ON=C(c2ccc(C(F)(F)F)cc2)NC1=O (centres unmarked) [Compound 6f] | > 100 |
| Cc1ccc(C2=NOC(Cc3nc(-c4ccc(C)cc4)no3)C(=O)N2)cc1 (centres unmarked) [Compound 7a] | 54.3 ± 14.3 |
| O=C1NC(c2ccc(F)cc2)=NOC1Cc1nc(-c2ccc(F)cc2)no1 (centres unmarked) [Compound 7b] | > 100 |
| O=C1NC(c2ccc([N+](=O)[O-])cc2)=NOC1Cc1nc(-c2ccc([N+](=O)[O-])cc2)no1 (centres unmarked) [Compound 7c] | 12.9 ± 0.014 |
| O=C1NC(c2ccc(C(F)(F)F)cc2)=NOC1Cc1nc(-c2ccc(C(F)(F)F)cc2)no1 (centres unmarked) [Compound 7d] | > 100 |
| Cc1ccc(C2=NOC(CC(=O)O)C(=O)N2)cc1 (centres unmarked) [Compound 8a] | > 100 |
| O=C(O)CC1ON=C(c2ccc(Oc3ccccc3)cc2)NC1=O (centres unmarked) [Compound 8b] | 12.7 ± 1.34 |
| COc1ccc(C2=NOC(CC(=O)O)C(=O)N2)cc1 (centres unmarked) [Compound 8c] | > 100 |
| O=C(O)CC1ON=C(c2ccc(C(F)(F)F)cc2)NC1=O (centres unmarked) [Compound 8d] | > 100 |
| O=C(O)CC1ON=C(c2cc(Cl)cc(Cl)c2)NC1=O (centres unmarked) [Compound 8e] | > 100 |
| O=C(O)CC1ON=C(c2cccc(Cl)c2)NC1=O (centres unmarked) [Compound 8f, 2-(3-(3-Chlorophenyl)-5-oxo-5,6-dihydro-4H-1,2,4-oxadiazin-6-yl)acetic acid] | > 100 |
| O=C(O)CC1ON=C(c2ccc(OC(F)(F)F)cc2)NC1=O (centres unmarked) [Compound 8g, 2-(5-Oxo-3-(4-(trifluoromethoxy)phenyl)-5,6-dihydro-4H-1,2,4-oxadiazin-6-yl)acetic acid] | > 100 |
